Calls of active or inactive are those of the source.
Columns and labels:
[1] = HEp-2 cell cytotoxicity, dose response, cytotoxicity control for RSV inhibitor project, HTS (AID 2410); format: functional; settings: human respiratory syncytial virus
Insulin-degrading enzyme [2] = molecular target: T1, Insulin-degrading enzyme (Homo sapiens, UniProt P14735); experiment: activators of recombinant IDE enzyme, dose response, counter-screen for IDE activator project, biochemical, fluorescence polarization (AID 588681)
T1 sequence (P14735 whole entry): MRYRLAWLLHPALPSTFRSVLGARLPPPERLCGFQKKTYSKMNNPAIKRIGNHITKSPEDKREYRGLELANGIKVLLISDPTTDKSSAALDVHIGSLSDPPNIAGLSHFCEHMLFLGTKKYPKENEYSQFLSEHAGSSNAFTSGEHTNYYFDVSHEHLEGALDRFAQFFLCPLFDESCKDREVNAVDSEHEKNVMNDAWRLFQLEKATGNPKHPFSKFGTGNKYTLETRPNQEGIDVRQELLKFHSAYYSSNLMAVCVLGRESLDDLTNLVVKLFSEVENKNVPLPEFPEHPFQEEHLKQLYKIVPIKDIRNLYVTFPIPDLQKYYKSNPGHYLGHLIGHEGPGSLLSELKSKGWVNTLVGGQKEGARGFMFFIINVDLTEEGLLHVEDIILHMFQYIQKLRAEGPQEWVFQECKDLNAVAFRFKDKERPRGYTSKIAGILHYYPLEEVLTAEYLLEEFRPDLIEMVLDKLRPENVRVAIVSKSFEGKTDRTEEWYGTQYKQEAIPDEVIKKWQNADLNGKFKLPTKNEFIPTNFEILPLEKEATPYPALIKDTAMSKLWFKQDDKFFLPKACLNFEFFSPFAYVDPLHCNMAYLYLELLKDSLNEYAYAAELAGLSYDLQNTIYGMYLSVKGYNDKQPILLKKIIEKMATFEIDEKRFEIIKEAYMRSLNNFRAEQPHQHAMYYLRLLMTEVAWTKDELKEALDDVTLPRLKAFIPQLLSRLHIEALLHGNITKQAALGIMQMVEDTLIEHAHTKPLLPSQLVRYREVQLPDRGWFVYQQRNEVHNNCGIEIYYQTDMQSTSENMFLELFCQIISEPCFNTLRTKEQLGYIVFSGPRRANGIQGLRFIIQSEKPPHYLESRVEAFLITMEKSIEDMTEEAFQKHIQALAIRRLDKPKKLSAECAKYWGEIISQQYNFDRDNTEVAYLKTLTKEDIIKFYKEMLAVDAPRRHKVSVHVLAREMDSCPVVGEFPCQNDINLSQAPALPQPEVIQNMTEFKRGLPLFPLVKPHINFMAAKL

Insulin-degrading enzyme [3] = molecular target: T1, Insulin-degrading enzyme; experiment: activators of endogenous IDE in HEK cells, dose response, cell-based, fluorescence polarization (AID 588439); format: functional
HEK293 [4] = experiment: HEK cell cytotoxicity by LDH release, dose response, cytotoxicity control for IDE activator project, fluorescence, HEK cells (AID 588440); format: functional, cell-based; settings: Homo sapiens;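 further: cytotoxicity by LDH release measuring loss of membrane integrity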
HEK293 [5] = experiment: optical interference in Abeta FP readout, dose response, artefact control for IDE activator project, biochemical, fluorescence polarization (AID 588442); format: functional, cell-based; settings: Homo sapiens
[6] = molecular target: T2, DNA dC->dU-editing enzyme APOBEC-3A (Homo sapiens, UniProt P31941); experiment: APOBEC3A DNA deaminase inhibitors, dose response, biochemical (AID 504722); format: functional
[7] = molecular target: T3, DNA dC->dU-editing enzyme APOBEC-3G (Homo sapiens, UniProt Q9HC16); experiment: Dose Response confirmation of small molecule APOBEC3G DNA Deaminase Inhibitors via a fluorescence-based single-stranded DNA deaminase assay. [Related pubchem assays (depositor defined):AID493012, AID493028]; format: functional
[8] = molecular target: T2, DNA dC->dU-editing enzyme APOBEC-3A; experiment: SAR analysis of small molecule inhibitors of APOBEC3A DNA Deaminase via a fluorescence-based single-stranded DNA deaminase assay - Set 2.; format: functional; settings: read-out: IC50_Mean
[9] = molecular target: T3, DNA dC->dU-editing enzyme APOBEC-3G; experiment: SAR analysis of small molecule inhibitors of APOBEC3G DNA Deaminase via a fluorescence-based single-stranded DNA deaminase assay - Set 2.; format: functional; settings: read-out: IC50_Mean
[10] = molecular target: T3, DNA dC->dU-editing enzyme APOBEC-3G; experiment: APOBEC3G deaminase inhibitors, SAR follow-up, biochemical, fluorescence, single-stranded DNA substrate (AID 602136); format: functional; settings: read-out: IC50_Mean
[11] = molecular target: T2, DNA dC->dU-editing enzyme APOBEC-3A; experiment: SAR analysis of small molecule inhibitors of APOBEC3A DNA Deaminase via a fluorescence-based single-stranded DNA deaminase assay.; format: functional; settings: read-out: IC50_Mean
[12] = molecular target: T4, Rac GTPase-activating protein 1 (Homo sapiens, UniProt Q9H0H5); experiment: MgcRacGAP GTPase-activating activity inhibitors, confirmation, biochemical, ADP Hunter fluorescence, primary and confirmatory (AID 624330); format: functional
T4 sequence (Q9H0H5 whole entry): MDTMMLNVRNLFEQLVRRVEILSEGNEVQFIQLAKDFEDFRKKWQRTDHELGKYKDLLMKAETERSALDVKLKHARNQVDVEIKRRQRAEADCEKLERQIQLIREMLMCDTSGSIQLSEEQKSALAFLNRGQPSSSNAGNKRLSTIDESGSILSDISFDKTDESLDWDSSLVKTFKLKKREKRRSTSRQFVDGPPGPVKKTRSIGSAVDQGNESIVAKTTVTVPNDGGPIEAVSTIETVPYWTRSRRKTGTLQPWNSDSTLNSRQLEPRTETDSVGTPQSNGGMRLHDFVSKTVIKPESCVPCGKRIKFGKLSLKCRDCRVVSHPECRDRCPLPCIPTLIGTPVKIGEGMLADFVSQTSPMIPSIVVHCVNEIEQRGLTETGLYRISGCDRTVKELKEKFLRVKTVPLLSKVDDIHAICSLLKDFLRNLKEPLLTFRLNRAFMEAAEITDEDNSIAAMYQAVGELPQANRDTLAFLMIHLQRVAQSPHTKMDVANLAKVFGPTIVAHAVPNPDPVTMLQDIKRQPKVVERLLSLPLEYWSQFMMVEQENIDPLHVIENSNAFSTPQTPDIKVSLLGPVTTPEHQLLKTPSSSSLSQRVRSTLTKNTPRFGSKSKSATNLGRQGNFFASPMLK

Caspase-3 = molecular target: T5, Caspase-3 (Homo sapiens, UniProt P42574); experiment: caspase-3 inhibitors as off-family protease, SAR follow-up, selectivity assay for SENP protease inhibitor project, biochemical, luminescence, set 2 (AID 588599); format: functional
T5 sequence (P42574 whole entry): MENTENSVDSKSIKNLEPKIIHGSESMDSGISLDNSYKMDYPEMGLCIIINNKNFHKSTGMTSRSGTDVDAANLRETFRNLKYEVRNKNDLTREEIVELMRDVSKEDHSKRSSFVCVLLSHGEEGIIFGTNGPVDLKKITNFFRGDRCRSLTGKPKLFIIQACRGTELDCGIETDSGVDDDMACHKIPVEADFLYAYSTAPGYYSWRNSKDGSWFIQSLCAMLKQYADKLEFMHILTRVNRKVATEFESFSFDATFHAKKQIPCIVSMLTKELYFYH

[13] = molecular target: T6, Sentrin-specific protease 8 (Homo sapiens, UniProt Q96LD8); experiment: SENP8 protease inhibitors, SAR follow-up, biochemical, luminescence, set 2 (AID 588601); format: functional
T6 sequence (Q96LD8 whole entry): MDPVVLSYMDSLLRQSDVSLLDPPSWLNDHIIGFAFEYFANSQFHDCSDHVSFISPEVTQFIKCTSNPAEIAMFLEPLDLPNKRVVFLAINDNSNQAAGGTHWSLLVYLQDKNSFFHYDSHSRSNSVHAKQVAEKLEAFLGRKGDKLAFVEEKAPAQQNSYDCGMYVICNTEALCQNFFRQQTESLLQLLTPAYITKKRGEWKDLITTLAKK

[14] = molecular target: T7, Sentrin-specific protease 7 (Homo sapiens, UniProt Q9BQF6); experiment: SENP7 protease inhibitors, SAR follow-up, biochemical, luminescence, set 2 (AID 588600); format: functional
T7 sequence (Q9BQF6 whole entry): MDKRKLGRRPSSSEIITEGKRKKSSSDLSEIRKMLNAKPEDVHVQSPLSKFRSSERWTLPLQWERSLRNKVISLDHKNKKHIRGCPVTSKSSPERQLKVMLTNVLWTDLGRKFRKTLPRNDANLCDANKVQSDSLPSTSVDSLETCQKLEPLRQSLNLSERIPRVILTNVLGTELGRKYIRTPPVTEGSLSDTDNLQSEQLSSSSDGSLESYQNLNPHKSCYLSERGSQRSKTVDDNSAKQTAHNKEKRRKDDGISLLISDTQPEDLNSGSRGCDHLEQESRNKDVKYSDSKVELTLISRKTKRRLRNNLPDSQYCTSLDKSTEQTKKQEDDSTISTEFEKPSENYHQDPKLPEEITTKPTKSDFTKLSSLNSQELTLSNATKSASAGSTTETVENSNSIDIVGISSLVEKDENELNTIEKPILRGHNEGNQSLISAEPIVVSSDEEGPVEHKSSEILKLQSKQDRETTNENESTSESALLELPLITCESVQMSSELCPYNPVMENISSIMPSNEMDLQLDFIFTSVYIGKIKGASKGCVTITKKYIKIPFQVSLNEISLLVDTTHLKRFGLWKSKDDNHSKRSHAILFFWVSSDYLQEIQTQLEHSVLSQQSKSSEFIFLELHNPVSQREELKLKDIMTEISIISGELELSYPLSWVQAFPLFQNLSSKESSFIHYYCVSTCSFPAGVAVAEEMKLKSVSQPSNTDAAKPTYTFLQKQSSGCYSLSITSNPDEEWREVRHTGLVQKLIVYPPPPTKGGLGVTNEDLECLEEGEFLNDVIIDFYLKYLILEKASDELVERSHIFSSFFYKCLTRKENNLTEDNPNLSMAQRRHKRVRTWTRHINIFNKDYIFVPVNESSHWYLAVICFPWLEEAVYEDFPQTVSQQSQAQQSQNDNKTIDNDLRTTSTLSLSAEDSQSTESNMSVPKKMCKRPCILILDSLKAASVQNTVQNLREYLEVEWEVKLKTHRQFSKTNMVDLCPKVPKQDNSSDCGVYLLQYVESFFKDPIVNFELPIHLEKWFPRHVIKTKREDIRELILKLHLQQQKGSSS

[15] = molecular target: T8, Sentrin-specific protease 6 (Homo sapiens, UniProt Q9GZR1); experiment: SENP6 protease inhibitors, SAR follow-up, biochemical, luminescence, set 2 (AID 588598); format: functional
T8 sequence (Q9GZR1 whole entry): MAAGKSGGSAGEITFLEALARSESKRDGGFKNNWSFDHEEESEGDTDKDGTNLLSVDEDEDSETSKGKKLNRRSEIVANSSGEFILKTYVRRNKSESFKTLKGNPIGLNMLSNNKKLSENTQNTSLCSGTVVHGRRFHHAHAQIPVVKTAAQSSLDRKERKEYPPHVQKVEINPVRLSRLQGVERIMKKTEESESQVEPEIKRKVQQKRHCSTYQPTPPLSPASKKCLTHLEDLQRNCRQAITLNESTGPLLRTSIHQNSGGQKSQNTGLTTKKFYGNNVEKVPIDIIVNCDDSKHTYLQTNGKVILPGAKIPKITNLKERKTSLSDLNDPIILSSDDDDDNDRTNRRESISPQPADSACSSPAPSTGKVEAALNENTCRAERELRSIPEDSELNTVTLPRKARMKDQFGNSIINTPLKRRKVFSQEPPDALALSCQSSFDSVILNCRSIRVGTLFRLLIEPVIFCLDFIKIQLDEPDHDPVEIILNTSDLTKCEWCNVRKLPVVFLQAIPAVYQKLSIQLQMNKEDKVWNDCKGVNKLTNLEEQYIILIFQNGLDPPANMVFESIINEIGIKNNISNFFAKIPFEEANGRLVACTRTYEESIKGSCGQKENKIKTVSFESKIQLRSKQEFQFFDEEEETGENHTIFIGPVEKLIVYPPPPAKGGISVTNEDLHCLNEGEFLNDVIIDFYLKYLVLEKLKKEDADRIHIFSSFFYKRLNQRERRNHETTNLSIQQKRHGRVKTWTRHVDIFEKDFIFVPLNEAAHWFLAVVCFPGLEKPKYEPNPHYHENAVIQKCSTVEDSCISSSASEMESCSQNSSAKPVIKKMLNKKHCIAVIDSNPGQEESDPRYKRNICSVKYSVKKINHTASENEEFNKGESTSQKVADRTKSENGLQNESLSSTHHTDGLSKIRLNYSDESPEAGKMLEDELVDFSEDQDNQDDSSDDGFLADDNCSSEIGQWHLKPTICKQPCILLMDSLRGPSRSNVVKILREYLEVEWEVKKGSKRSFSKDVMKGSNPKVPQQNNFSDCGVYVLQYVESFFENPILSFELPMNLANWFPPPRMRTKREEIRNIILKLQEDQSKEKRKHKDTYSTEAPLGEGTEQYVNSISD

T3 sequence (Q9HC16 whole entry): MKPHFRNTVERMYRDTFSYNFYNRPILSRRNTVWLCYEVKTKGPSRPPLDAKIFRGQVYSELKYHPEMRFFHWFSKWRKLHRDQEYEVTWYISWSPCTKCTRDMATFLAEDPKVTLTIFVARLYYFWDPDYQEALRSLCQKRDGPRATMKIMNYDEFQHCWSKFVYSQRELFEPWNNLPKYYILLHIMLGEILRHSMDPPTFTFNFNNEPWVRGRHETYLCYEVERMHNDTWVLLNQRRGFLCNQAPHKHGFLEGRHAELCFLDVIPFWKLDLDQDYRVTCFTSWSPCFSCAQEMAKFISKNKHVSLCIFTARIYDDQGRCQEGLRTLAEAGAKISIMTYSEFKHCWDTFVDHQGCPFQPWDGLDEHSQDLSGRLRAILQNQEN
T2 sequence (P31941 whole entry): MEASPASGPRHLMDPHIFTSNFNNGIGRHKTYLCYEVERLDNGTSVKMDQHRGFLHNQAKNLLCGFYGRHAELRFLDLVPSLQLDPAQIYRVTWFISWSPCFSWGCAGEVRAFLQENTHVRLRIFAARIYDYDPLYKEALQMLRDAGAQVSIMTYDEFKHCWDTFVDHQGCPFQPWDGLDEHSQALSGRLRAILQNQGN

IC50 (Caspase-3) | IC50 [14] | IC50 [15] | SMILES | EC50 (Insulin-degrading enzyme [2]) | EC50 (Insulin-degrading enzyme [3]) | IC50 (HEK293 [4]) | EC50 (HEK293 [5]) | IC50 [13] | also measured
 |  |  | COc1cc(C2Nc3cccc4cccc(c34)N2)ccc1O | > 54.7 µM (inactive) | > 54.7 µM (inactive) | > 89.3 µM (inactive) | > 54.7 µM (inactive) |  | CC50 [1]: 32.1 µM (active)
 |  |  | COc1ccc(NCC(O)COc2ccc(C(C)(C)C)cc2)cc1 (centres undefined) | > 54.7 µM (inactive) | > 54.7 µM (inactive) | 49.1 µM (inactive) | > 54.7 µM (inactive) |  | 
 |  |  | Cc1ccc(-c2csc3n[nH]c(=S)n23)cc1 |  |  |  |  |  | IC50 [6]: > 100 µM (inactive); IC50 [7]: 1.35 µM (active); IC50 [8]: > 99 µM (inactive); IC50 [9]: > 99 µM (inactive); IC50 [10]: 3.48 µM (active); IC50 [11]: > 99 µM (inactive); IC50 [12]: 58.1 µM (active)
> 99 µM (inactive) | > 99 µM (inactive) | > 99 µM (inactive) | CNC(=O)C1Cc2ccccc2N1C(=O)C(=O)c1c(C)[nH]c2ccccc12 (centres undefined) |  |  |  |  | > 99 µM (inactive) | 
> 99 µM (inactive) | > 99 µM (inactive) | > 99 µM (inactive) | CN(C)C(=O)C(=O)c1c(-c2ccccc2)[nH]c2ccc(Cl)cc12 |  |  |  |  | > 99 µM (inactive) | 

— ChEMBL document CHEMBL1201862, “PubChem BioAssay data set” (2004)
